In US10434079B2, “Compositions and methods for the treatment of fatty acid metabolism disorders” (The Children's Hospital of Philadelphia, priority 2013, dated 2019):

Target: T1, C238A VLCAD (Mus musculus, UniProt P50544, C238A)
T1 construct: 3xFLAG (C); host or cells: Hepa 1 to 6 cells
T1 sequence (P50544 42-656 C238A): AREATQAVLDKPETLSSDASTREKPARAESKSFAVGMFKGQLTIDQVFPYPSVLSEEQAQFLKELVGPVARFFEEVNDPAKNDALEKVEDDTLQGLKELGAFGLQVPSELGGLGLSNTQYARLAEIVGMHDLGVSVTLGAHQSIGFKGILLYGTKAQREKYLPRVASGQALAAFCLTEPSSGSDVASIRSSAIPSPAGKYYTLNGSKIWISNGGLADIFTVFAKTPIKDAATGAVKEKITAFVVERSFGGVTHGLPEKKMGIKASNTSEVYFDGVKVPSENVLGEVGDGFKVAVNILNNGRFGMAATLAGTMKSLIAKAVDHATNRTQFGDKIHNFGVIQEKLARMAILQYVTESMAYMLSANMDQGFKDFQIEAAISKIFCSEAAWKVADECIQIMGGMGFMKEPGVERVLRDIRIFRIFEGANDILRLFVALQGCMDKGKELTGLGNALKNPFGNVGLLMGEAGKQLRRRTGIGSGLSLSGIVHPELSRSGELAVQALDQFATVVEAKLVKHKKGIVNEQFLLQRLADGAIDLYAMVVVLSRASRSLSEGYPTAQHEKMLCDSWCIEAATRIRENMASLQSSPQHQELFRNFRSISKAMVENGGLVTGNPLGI
Assay: Hepa 1 to 6 cells expressing FLAG-tagged C238A VLCAD exposed to GSNO
Assay type: cell-based
Details: same GSNO treatment
Experimental: Liver homogenate (final concentration of 0.03 μg/μl) or cell lysate (final concentration of 0.09 μg/μl) in 100 mM potassium phosphate buffer (pH 7.2) containing 0.2% Triton X-100 and 0.1 mM EDTA was mixed with […] ferricenium ion, and the reaction was initiated by the addition of palmitoyl-CoA (the final volume of the assay was 130 μl). […] At least nine concentrations of palmitoyl-CoA, ranging from 0.015 to 2 mM, were used for the experimental determination of the apparent Vmax and KM of VLCAD for each animal. […] A unit of enzyme activity is defined as the amount of enzyme that causes the reduction of […] of ferricenium per minute at room temperature (ε=4.3 mM^−1 cm^−1 at 300 nm) (Izai et al. (1992) J. Biol. Chem., 267:1027-1033). […] The measurement of specific activity of VLCAD in liver homogenates (FIG. 2H) and cell lysates (FIG. 4) was performed in the presence of 0.25 and 0.125 mM palmitoyl-CoA, respectively.
The QuikChange® Lightning Site-Directed Mutagenesis Kit (Agilent Technologies) was used to introduce single amino acid mutations in complementary DNA encoding VLCAD. A cysteine-to-alanine mutant at amino acid position 238 was generated with Ex-Mm01013-M14 (hereinafter referred to as pVLCAD-3×FLAG®), a plasmid encoding mouse VLCAD fused to three FLAG® tags in the C-terminal region of the protein (GeneCopoeia), as a template. […]

basal activity of C238A VLCAD mutant in response to GSNO: did not change
SMILES: N[C@@H](CCC(=O)N[C@@H](CSN=O)C(=O)NCC(=O)O)C(=O)O [GSNO, S-nitrosoglutathione]
